Reference: patent publication US20230355613A1, “METHODS FOR TREATING PANCREATIC DUCTAL ADENOCARCINOMA” (HEALTH RESEARCH, INC., priority 2022, published 2023)
Entries after “also recorded” stand apart in the source; their conditions may differ.

Experiments:
Panc1 cells [1] = assay: RNA-seq of JTE-607 treated cells (APA, read-through, differential expression analysis); type: cell-based, human; settings: Panc1, H3F3A and H2AZ1 normalized counts
From the text: mRNA regulation is distinct between knockdown and chemical inhibition of CPSF3. Because JTE-607 inhibits CPSF3 catalytic activity without inducing target degradation, it was sought to understand if the function of CPSF3 is distinct between knockdown and inhibition. As CPSF3 is an integral component of the polyadenylation complex and the histone cleavage complex (HCC), it was hypothesized that CPSF3 disruption would dysregulate both alternative polyadenylation (APA) and histone mRNA processing. To test this hypothesis, CPSF3 knockdown and JTE-607 treated Panc1 cells were subjected to RNA-sequencing (RNA-seq). […] In the CPSF3 knockdown cells, PolyAMiner-Bulk detected 85 significant DAGs, of which 43 genes underwent 3′UTR lengthening (PolyAIndex>0.5; Padj<0.05) and 42 genes underwent 3′UTR shortening (PolyAIndex <−0.5; Padj<0.05) (FIG. 3A). In the CPSF3 inhibition model, PolyAMiner-Bulk detected 174 significant DAGs, of which 138 underwent 3′UTR lengthening (PolyAIndex>0.5; Padj<0.05) and 36 genes underwent 3′UTR shortening (PolyAIndex <−0.5; Padj<0.05) (FIG. 3B). […]
JTE-607 inhibits expression of replication-dependent histones. JTE-607 induces global transcriptional read-through in Ewing's sarcoma cells. Therefore, it was asked whether JTE-607 would similarly induce global read-through in PDAC cells by applying the ARTDeco algorithm. […]

Panc1 cells [2] = assay: Western blot of histone protein levels; type: cell-based, human; settings: dose- and time-dependent
HPNE cells = assay: Micrococcal Nuclease (MNase) assay of chromatin condensation; type: cell-based, human; settings: compared with DMSO-treated cells
Experimental: (§1) Therefore, a Micrococcal Nuclease (MNase) assay was performed to assess relative chromatin condensation. In this assay, protein-free DNA is digested by MNase, producing DNA fragmentation patterns that are indicators of whether chromatin is in a condensed or relaxed state. […] To assess chromatin destabilization in a living cell, the HeLa-TI cell line model that has a silenced GFP reporter within a heterochromatic region of the genome was utilized. […] Therefore, GFP expression in HeLa-TI cells was monitored upon JTE-607 treatment by both fluorescence microscopy and flow cytometry.
(§2) Micrococcal digestion. Micrococcal Nuclease (MNase) was performed as previously described. Briefly, cells were trypsinized, washed with 1×RSB buffer (10 mM Tris HCL, pH 7.6; 15 mM NaCl; 1.5 mM MgCl2) and pelleted at 1000 rpm for 4 minutes at room temperature. Cell pellets were resuspended in 1×RSB buffer with 1% TritonX-100, homogenized with a loose pestle (5 strokes) and centrifuged for 5 minutes at 2000 rpm at 4° C. Pellets were washed two times with 1 ml of buffer A (10 mM Tris HCL, pH 7.6; 15 mM NaCl; 60 mM KCl; 0.34 M Sucrose; 0.1% B-mercaptoethanol; 0.15 mM Spermine; 0.5 mM Spermidine; 0.25 mM PMSF) and nuclei were pelleted at 160 g for 10 minutes at 4° C. Nuclei were resuspended in 1.5 mL of buffer A supplemented with 1 mM of CaCl2). Nuclear suspensions (500 μL) were digested with 200 U/mL Micrococcal nuclease at 37° C. at different time points.

Panc1 cells [3] = assay: as above; type: cell-based, human
Experimental: as §1, §2

HeLa-TI cells = assay: Silenced GFP reporter derepression (chromatin destabilization) by microscopy and flow cytometry; type: cell-based; settings: dose- and time-dependent
Experimental: as §1

[4] = healthy human volunteers; cited from earlier work
[5] = test system: C-reactive protein, IL-10 and IL-1ra; settings: in humans; cited from earlier work
[6] = test system: human acute myeloid leukemia (AML) and Ewing's sarcoma cells; settings: in vitro; cited from earlier work
xenograft models = xenograft models in vivo; cited from earlier work

With `CCOC(=O)[C@H](Cc1ccccc1)NC(=O)c1cc(Cl)c(OCCN2CCN(C)CC2)c(Cl)c1O` [JTE-607] the “expression of RI histones” value (Panc1 cells [1]) was “not downregulated”, the “H3 and H2B protein levels” value (Panc1 cells [2]) was “reduced both H3 and H2B protein levels” and the “chromatin digestion by MNase” value (HPNE cells) was “no chromatin digestion”. For the same compound, the “mononucleosomes released by MNase digestion” value (Panc1 cells [3]; after 30 minutes of incubation) was ~4×10^3 normalized FU, the “chromatin digestion by MNase” value (Panc1 cells [3]; compared with DMSO-treated cells) was “rapid and complete chromatin digestion” and the GFP expression (HeLa-TI cells) was “induced GFP expression to levels comparable with CBL0137”. For the same compound, the adverse events [4] was “no serious adverse effects; also recorded: no severe adverse events reported”, the “endotoxin-induced production of C-reactive protein, IL-10 and IL-1ra” value [5] was “inhibited” and the apoptosis [6] was “induces apoptosis”. For the same compound, the “survival of tumor-bearing mice” value (xenograft models) was “prolongs survival”.
